Where “and” joins values, the source holds several entries; their conditions need not be identical. Identical values can stand only once. Inconclusive results and toxic doses are left out. Rule as the data show it: active = T/C of 150% or more; inactive = T/C below 125%.
Tested on: L1210 leukemia ip in BDF1 mice, survival T/C
Experiment: NCI In Vivo Anticancer Drug Screen. Data for tumor model L1210 Leukemia (intraperitoneal) in B6D2F1 (BDF1) mice
Conditions: endpoint: mean survival time, higher = longer survival
Outline: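 Ratio derived from survival: compound-dosed mice over vehicle-dosed mice, all bearing a transplantable tumor.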

[1] = dose: 100.0 mg/kg/injection, schedule: Q04DX003 (ip), vehicle: saline
[2] = dose: 50.0 mg/kg/injection, schedule: Q01DX009 (ip), vehicle: saline with Tween-80
[3] = dose: 100.0 mg/kg/injection, schedule: Q01DX009 (ip), vehicle: saline with Tween-80
[4] = dose: 100.0 mg/kg/injection, schedule: Q04DX003 (ip), vehicle: saline with Tween-80
[5] = dose: 200.0 mg/kg/injection, schedule: Q01DX009 (ip), vehicle: saline with Tween-80
[6] = dose: 200.0 mg/kg/injection, schedule: Q04DX003 (ip), vehicle: saline with Tween-80
[7] = dose: 100.0 mg/kg/injection, schedule: Q04DX002 (ip), vehicle: Klucel (hydroxypropylcellulose) (HPC)
[8] = dose: 100.0 mg/kg/injection, schedule: Q01DX001 (ip), vehicle: carboxymethylcellulose (CMC)
[9] = dose: 200.0 mg/kg/injection, schedule: Q01DX001 (ip), vehicle: carboxymethylcellulose (CMC)
[10] = dose: 400.0 mg/kg/injection, schedule: Q01DX001 (ip), vehicle: carboxymethylcellulose (CMC)
[11] = dose: 100.0 mg/kg/injection, schedule: Q04DX003 (ip), vehicle: Klucel (hydroxypropylcellulose) (HPC)
[12] = dose: 200.0 mg/kg/injection, schedule: Q04DX003 (ip), vehicle: Klucel (hydroxypropylcellulose) (HPC)
[13] = dose: 400.0 mg/kg/injection, schedule: Q04DX003 (ip), vehicle: Klucel (hydroxypropylcellulose) (HPC)

Measured: T/C

CC(CCC(=O)O)(c1cc(Cl)c(O)c(Cl)c1)c1cc(Cl)c(O)c(Cl)c1
inactive: dose: 100.0 mg/kg/injection, schedule: Q01DX009 (ip), vehicle: gum acacia 95 % of control | dose: 100.0 mg/kg/injection, schedule: Q04DX003 (ip), vehicle: gum acacia 100 % of control | dose: 200.0 mg/kg/injection, schedule: Q01DX009 (ip), vehicle: gum acacia 103 % of control | dose: 200.0 mg/kg/injection, schedule: Q04DX003 (ip), vehicle: gum acacia 92 % of control | dose: 400.0 mg/kg/injection, schedule: Q04DX003 (ip), vehicle: gum acacia 96 % of control

O=C(O)CCC(=O)c1ccc2c(c1)CCCC2
inactive: dose: 3.13 mg/kg/injection, schedule: Q01DX009 (ip), vehicle: saline with Tween-80 95 % of control | dose: 6.25 mg/kg/injection, schedule: Q01DX009 (ip), vehicle: saline with Tween-80 92 % of control | dose: 12.5 mg/kg/injection, schedule: Q01DX009 (ip), vehicle: saline with Tween-80 93 % of control

Cc1nc2n[nH]c(N)c2nc1C
inactive: [1] 98 % of control | dose: 200.0 mg/kg/injection, schedule: Q04DX003 (ip), vehicle: saline 91 % of control | dose: 400.0 mg/kg/injection, schedule: Q04DX003 (ip), vehicle: saline 88 % of control

COc1cc2c(c(OC)c1OC)-c1ccc(OC)c(=O)cc1[C@@H](NC=O)CC2
inactive: dose: 0.35 mg/kg/injection, schedule: Q01DX015 (ip), vehicle: carboxymethylcellulose (CMC) 118 % of control | dose: 0.5 mg/kg/injection, schedule: Q01DX009 (ip), vehicle: Klucel (hydroxypropylcellulose) (HPC) 122 % of control | dose: 0.7 mg/kg/injection, schedule: Q01DX015 (ip), vehicle: carboxymethylcellulose (CMC) 112 % of control | dose: 3.0 mg/kg/injection, schedule: Q01DX015 (ip), vehicle: carboxymethylcellulose (CMC) 90 % of control

C=CN1C(=O)N(C=C)C(C)(CC(C)C)C1=O (stereo not drawn)
inactive: [2] 104 % of control | [3] 103 % of control | [4] 92 % of control | [5] 103 % of control | [6] 92 % of control

O=C1C=C(Nc2ccc([N+](=O)[O-])cc2)C(=O)c2ccccc21
inactive: dose: 75.0 mg/kg/injection, schedule: Q01DX001 (ip), vehicle: carboxymethylcellulose (CMC) 87 % of control | dose: 300.0 mg/kg/injection, schedule: Q01DX001 (ip), vehicle: carboxymethylcellulose (CMC) 89 % of control

O=C(c1ccc(F)cc1)c1ccc(Cl)cc1Cl
inactive: [4] 97 % of control | [6] 98 % of control | dose: 400.0 mg/kg/injection, schedule: Q04DX003 (ip), vehicle: saline with Tween-80 101 % of control

COc1cc(/C=N/N)cc(OC)c1OC
inactive: dose: 25.0 mg/kg/injection, schedule: Q04DX002 (ip), vehicle: Klucel (hydroxypropylcellulose) (HPC) 117 % of control | dose: 50.0 mg/kg/injection, schedule: Q04DX002 (ip), vehicle: Klucel (hydroxypropylcellulose) (HPC) 117 % of control | [7] 98 % of control and 109 % of control

COc1ccc([N+](=O)[O-])cc1NS(=O)(=O)c1ccc(Cl)c([N+](=O)[O-])c1
inactive: [2] 95 % of control and 90 % of control | dose: 50.0 mg/kg/injection, schedule: Q04DX003 (ip), vehicle: other 97 % of control | dose: 100.0 mg/kg/injection, schedule: Q01DX009 (ip), vehicle: other 105 % of control | [3] 93 % of control and 106 % of control | dose: 100.0 mg/kg/injection, schedule: Q04DX002 (ip), vehicle: other 107 % of control and 113 % of control | dose: 100.0 mg/kg/injection, schedule: Q04DX003 (ip), vehicle: other 96 % of control | [5] 95 % of control | dose: 200.0 mg/kg/injection, schedule: Q04DX002 (ip), vehicle: other 96 % of control and 102 % of control | dose: 200.0 mg/kg/injection, schedule: Q04DX003 (ip), vehicle: other 89 % of control | dose: 400.0 mg/kg/injection, schedule: Q01DX009 (ip), vehicle: other 87 % of control | dose: 400.0 mg/kg/injection, schedule: Q01DX009 (ip), vehicle: saline with Tween-80 95 % of control | dose: 400.0 mg/kg/injection, schedule: Q04DX002 (ip), vehicle: other 101 % of control and 102 % of control

C=CCNC(=S)Nc1cccc(C(F)(F)F)c1
inactive: dose: 50.0 mg/kg/injection, schedule: Q01DX001 (sc), vehicle: carboxymethylcellulose (CMC) 104 % of control | dose: 100.0 mg/kg/injection, schedule: Q01DX001 (sc), vehicle: carboxymethylcellulose (CMC) 101 % of control | dose: 200.0 mg/kg/injection, schedule: Q01DX001 (sc), vehicle: carboxymethylcellulose (CMC) 104 % of control | dose: 400.0 mg/kg/injection, schedule: Q01DX001 (sc), vehicle: carboxymethylcellulose (CMC) 114 % of control

OC1c2cc(Cl)ccc2-c2c(N=Cc3ccc4c(c3)OCO4)cc(Cl)cc21 (stereo not drawn)
inactive: [8] 90 % of control | [9] 90 % of control | [10] 93 % of control

CCCCCCCCCCSCCO
inactive: dose: 100.0 mg/kg/injection, schedule: Q01DX001 (ip), vehicle: saline 102 % of control | dose: 200.0 mg/kg/injection, schedule: Q01DX001 (ip), vehicle: saline 102 % of control | dose: 400.0 mg/kg/injection, schedule: Q01DX001 (ip), vehicle: saline 97 % of control

Cc1ccccc1NC(=O)NCC(=O)O
inactive: [11] 104 % of control | [12] 98 % of control | [13] 93 % of control

COC(=O)C(C)C(C)=O (stereo not drawn)
inactive: dose: 100.0 mg/kg/injection, schedule: Q01DX009 (sc), vehicle: olive oil, sesame oil, peanut oil 106 % of control | dose: 100.0 mg/kg/injection, schedule: Q04DX003 (sc), vehicle: olive oil, sesame oil, peanut oil 98 % of control | dose: 200.0 mg/kg/injection, schedule: Q01DX009 (sc), vehicle: olive oil, sesame oil, peanut oil 107 % of control | dose: 200.0 mg/kg/injection, schedule: Q04DX003 (sc), vehicle: olive oil, sesame oil, peanut oil 101 % of control | dose: 400.0 mg/kg/injection, schedule: Q01DX009 (sc), vehicle: olive oil, sesame oil, peanut oil 106 % of control | dose: 400.0 mg/kg/injection, schedule: Q04DX003 (sc), vehicle: olive oil, sesame oil, peanut oil 98 % of control

CCCCCCCCCCCCCCCCS(=O)(=O)N/N=C/c1cc(Cl)ccc1O
inactive: [8] 94 % of control | [9] 92 % of control | [10] 92 % of control

CC(C)(C)OC(=O)NC(Cc1ccccc1)C(=O)NN (stereo not drawn)
inactive: [7] 108 % of control | dose: 200.0 mg/kg/injection, schedule: Q04DX002 (ip), vehicle: Klucel (hydroxypropylcellulose) (HPC) 97 % of control | dose: 400.0 mg/kg/injection, schedule: Q04DX002 (ip), vehicle: Klucel (hydroxypropylcellulose) (HPC) 108 % of control

CN(C)Cc1c[nH]c2nccnc12
inactive: dose: 25.0 mg/kg/injection, schedule: Q01DX009 (ip), vehicle: saline 102 % of control | dose: 25.0 mg/kg/injection, schedule: Q04DX003 (ip), vehicle: saline 100 % of control | dose: 50.0 mg/kg/injection, schedule: Q01DX009 (ip), vehicle: saline 100 % of control | dose: 50.0 mg/kg/injection, schedule: Q04DX003 (ip), vehicle: saline 105 % of control | dose: 100.0 mg/kg/injection, schedule: Q01DX009 (ip), vehicle: saline 99 % of control and 102 % of control | [1] 100 % of control and 104 % of control | dose: 200.0 mg/kg/injection, schedule: Q01DX009 (ip), vehicle: saline 99 % of control

C=CCN(CC=C)c1ccccc1
inactive: dose: 100.0 mg/kg/injection, schedule: Q01DX009 (ip), vehicle: Klucel (hydroxypropylcellulose) (HPC) 93 % of control | [11] 108 % of control | dose: 200.0 mg/kg/injection, schedule: Q01DX009 (ip), vehicle: Klucel (hydroxypropylcellulose) (HPC) 107 % of control | [12] 101 % of control | dose: 400.0 mg/kg/injection, schedule: Q01DX009 (ip), vehicle: Klucel (hydroxypropylcellulose) (HPC) 112 % of control | [13] 101 % of control
